According to US20100286092A1, “BETA-LACTAMASE INHIBITORS” (priority 2007, published 2010):

Assays:
Conditions in all cases: in the presence of a fixed amount (8 μg/mL) of Ceftazidime; CAMHB, 16-20 hours at 37° C.
[1] = system: E. coli expressing the Class A ESBL SHV-5; format: cell-based
From the text: (§1) To determine the ability of test compounds to potentiate the inhibition of the growth of bacterial strains producing beta-lactamase enzymes, classic cell based screening assays were employed. Four bacteria strains producing beta-lactamase enzymes were used: K. pneumoniae expressing the Class A Extended Spectrum Beta-Lactamase (ESBL) CTX-M-15, E. coli expressing the Class A ESBL SHV-5, E. cloacae expressing the Class C P99+, and K. pneumoniae expressing the Class A carbapenemase KPC-2. In order to evaluate the ability of test compounds to inhibit beta-lactamase activity, Applicants used a modification of the broth microdilution assay. The assay was conducted in Cation Adjusted Mueller Hinton Broth (CAMHB, BD #212322, BD Diagnostic Systems, Sparks, Md.). Bacteria strains were grown for 3-5 hours in CAMBH broth. All four strains were grown in presence of 50 μg/mL ampicillin to ensure resistance is maintained. In the meantime, test compounds were diluted in DMSO to a 0.1 mg/mL stock. The compounds were added to a microtiter plate and were diluted in 2-fold serial dilutions in CAMHB in a final concentration range of 8 μg/mL to 0.015 μg/ml. An overlay of CAMHB containing a cephalosporin was added to the compounds at a final static concentration of 8 μg/ml. […] Each of these compound plates are made in quadruplicate, one for each bacteria strain. In addition to the titration of test compounds the MICs of a panel of cephalosporins is also tested to ensure the strains are behaving consistently from test to test. Once the test compound and cephalosporin are added the plates can be inoculated. Inocula are conducted according to CLSI broth microdilution method. After inoculation the plates are incubated for 16-20 hours at 37° C. then the Minimal Inhibitory Concentration (MIC) of the test compound is determined visually.
(§2) Using the methodology described above, examples of the current invention were evaluated for their ability to inhibit the growth of β-lactamase producing bacteria in the presence of a β-lactam antibiotic. […] NT=Not Tested.

[2] = system: K. pneumoniae expressing the Class A Extended Spectrum Beta-Lactamase (ESBL) CTX-M-15; format: cell-based
From the text: as §1, §2

[3] = system: K. pneumoniae expressing the Class A carbapenemase KPC-2
From the text: as §1, §2

[4] = system: E. cloacae expressing the Class C P99+; format: cell-based
From the text: as §1, §2

SMILES | MIC of example compound, E. coli SHV-5 + 8 μg/mL CAZ [1] | MIC of example compound, K. pneumoniae CTX-M-15 + 8 μg/mL CAZ [2] | MIC of example compound, K. pneumoniae KPC-2 + 8 μg/mL CAZ [3] | MIC of example compound, E. cloacae P99 AmpC + 8 μg/mL CAZ [4]
O=C(Cc1cccs1)N[C@@H](Cc1cccc(C(=O)O)c1O)B(O)O [Example 1, (1R)-1-(2-thiophene-2-yl-acetylamino)-2-(2-hydroxy-3-carboxyphenyl)ethyl-1-boronic acid] | C (C represents an MIC of <1 μg/mL) | C (C represents an MIC of <1 μg/mL) | C (C represents an MIC of <1 μg/mL) | –
O=C(O)COc1cccc(CC(=O)N[C@@H](Cc2cccc(C(=O)O)c2O)B(O)O)c1 [Example 7, (1R)-1-[3-(carboxymethoxy)-phenyl]acetylamino-(3-carboxy-2-hydroxy)benzyl-methylboronic acid] | C (C represents an MIC of <1 μg/mL) | C (C represents an MIC of <1 μg/mL) | C (C represents an MIC of <1 μg/mL) | –
O=C(Cc1cc(Br)cs1)N[C@@H](Cc1cccc(C(=O)O)c1O)B(O)O [Example 9, (1R)-1-(2-(4-bromo-thiophen-2-nyl)acetylamino)-2-(2-hydroxy-3-carboxyphenyl)ethyl-1-boronic acid] | C (C represents an MIC of <1 μg/mL) | C (C represents an MIC of <1 μg/mL) | C (C represents an MIC of <1 μg/mL) | –
CCC(=O)N[C@@H](Cc1cccc(C(=O)O)c1O)B(O)O [Example 16, (1R)-1-(propionylamino)-2-(2-hydroxy-3-carboxyphenyl)ethyl-1-boronic acid] | – | C (C represents an MIC of <1 μg/mL) | C (C represents an MIC of <1 μg/mL) | C (C represents an MIC of <1 μg/mL)
COc1ccc(OC)c(CC(=O)N[C@@H](Cc2cccc(C(=O)O)c2O)B(O)O)c1 [Example 17, (1R)-1-(2-(2,5-dimethoxyphenyl)-acetylamino)-2-(2-hydroxy-3-carboxyphenyl)ethyl-1-boronic acid] | A (A represents an MIC>8 μg/mL) | C (C represents an MIC of <1 μg/mL) | – | C (C represents an MIC of <1 μg/mL)
O=C(CO)N[C@@H](Cc1cccc(C(=O)O)c1O)B(O)O [Example 19, (1R)-1-Hydroxyacetylamino-1-(3-carboxy-2-hydroxy)benzyl-methyl boronic acid] | A (A represents an MIC>8 μg/mL) | C (C represents an MIC of <1 μg/mL) | C (C represents an MIC of <1 μg/mL) | –
O=C(O)c1cccc(C[C@H](NC(=O)C2CC2)B(O)O)c1O [Example 20, (1R)-1-Cyclopropanecarbonyl-amino-1-(3-carboxy-2-hydroxy)benzyl-methylboronic acid] | – | C (C represents an MIC of <1 μg/mL) | C (C represents an MIC of <1 μg/mL) | C (C represents an MIC of <1 μg/mL)
CCCCCC(=O)N[C@@H](Cc1cccc(C(=O)O)c1O)B(O)O [Example 21, (1R)-1-Hexanoylamino-(3-carboxy-2-hydroxy)benzyl-methylboronic acid] | C (C represents an MIC of <1 μg/mL) | C (C represents an MIC of <1 μg/mL) | C (C represents an MIC of <1 μg/mL) | –
O=C(N[C@@H](Cc1cccc(C(=O)O)c1O)B(O)O)c1ccc(F)cc1 [Example 26, (1R)-1-(4-Fluorobenzoylamino)-(3-carboxy-2-hydroxy)benzyl-methylboronic acid] | – | C (C represents an MIC of <1 μg/mL) | C (C represents an MIC of <1 μg/mL) | C (C represents an MIC of <1 μg/mL)
COc1cccc(C(=O)N[C@@H](Cc2cccc(C(=O)O)c2O)B(O)O)c1 [Example 29, (1R)-1-(3-methoxybenzoylamino)-2-(2-hydroxy-3-carboxyphenyl)ethyl-1-boronic acid] | C (C represents an MIC of <1 μg/mL) | C (C represents an MIC of <1 μg/mL) | C (C represents an MIC of <1 μg/mL) | –
COc1ccccc1C(=O)N[C@@H](Cc1cccc(C(=O)O)c1O)B(O)O [Example 34, (1R)-1-(2-methoxybenzoylamino)-2-(2-hydroxy-3-carboxyphenyl)ethyl-1-boronic acid] | A (A represents an MIC>8 μg/mL) | – | C (C represents an MIC of <1 μg/mL) | –
O=C(N[C@@H](Cc1cccc(C(=O)O)c1O)B(O)O)c1ccc(O)cc1 [Example 36, (1R)-1-(4-Hydroxybenzoyl)-amino-1-(3-carboxy-2-hydroxy)benzyl-methylboronic acid] | – | C (C represents an MIC of <1 μg/mL) | C (C represents an MIC of <1 μg/mL) | C (C represents an MIC of <1 μg/mL)
CC(=O)NCC(=O)N[C@@H](Cc1cccc(C(=O)O)c1O)B(O)O [Example 37, (1R)-1-(2-acetamidoacetylamino)-2-(2-hydroxy-3-carboxyphenyl)ethyl-1-boronic acid] | – | C (C represents an MIC of <1 μg/mL) | C (C represents an MIC of <1 μg/mL) | C (C represents an MIC of <1 μg/mL)
NCCC(=O)N[C@@H](Cc1cccc(C(=O)O)c1O)B(O)O.O=CO [Example 38, (1R)-1-(3-aminopropanoylamino)-2-(2-hydroxy-3-carboxyphenyl)ethyl-1-boronic acid formate salt] | A (A represents an MIC>8 μg/mL) | A (A represents an MIC>8 μg/mL) | C (C represents an MIC of <1 μg/mL) | –
O=C(O)c1cccc(C[C@H](NC(=O)c2c(Cl)cccc2Cl)B(O)O)c1O [Example 43, (1R)-1-(2,6-Dichlorobenzoyl)-amino-1-(3-carboxy-2-hydroxy)benzyl-methylboronic acid] | A (A represents an MIC>8 μg/mL) | A (A represents an MIC>8 μg/mL) | A (A represents an MIC>8 μg/mL) | –
Cn1nc(-c2ccccc2)cc1C(=O)N[C@@H](Cc1cccc(C(=O)O)c1O)B(O)O [Example 44, (1R)-1-(1-methyl-3-phenyl-1H-pyrazole-5-carbonyl-amino)-2-(2-hydroxy-3-carboxyphenyl)ethyl-1-boronic acid] | A (A represents an MIC>8 μg/mL) | A (A represents an MIC>8 μg/mL) | – | –
O=C(N[C@@H](Cc1cccc(C(=O)O)c1O)B(O)O)c1ccno1 [Example 46, (1R)-1-(isoxazole-5-carbonyl-amino)-2-(2-hydroxy-3-carboxyphenyl)ethyl-1-boronic acid] | – | C (C represents an MIC of <1 μg/mL) | C (C represents an MIC of <1 μg/mL) | C (C represents an MIC of <1 μg/mL)
Cc1nc(-c2cccc(C(=O)N[C@@H](Cc3cccc(C(=O)O)c3O)B(O)O)c2)no1 [Example 47, (1R)-1-[3-(5-methyl-[1,2,4]oxadiazol-3-yl)-benzoyl]-amino-1-(3-carboxy-2-hydroxy)benzyl-methylboronic acid] | A (A represents an MIC>8 μg/mL) | A (A represents an MIC>8 μg/mL) | – | –
O=C(N[C@@H](Cc1cccc(C(=O)O)c1O)B(O)O)c1ccc(N2CCOCC2)nc1 [Example 48, (1R)-1-(6-morpholin-4-yl-pyridine-3-carbonyl)-amino-1-(3-carboxy-2-hydroxy)benzyl-methylboronic acid] | A (A represents an MIC>8 μg/mL) | – | C (C represents an MIC of <1 μg/mL) | –
